{
  "source": "patent US20050228052A1",
  "about": "“Methods of treating, preventing and managing a sleep disorder using (S)-didesmethylsibutramine” (priority 2004, published 2005)",
  "key": {"[1]": {"tested_on": "nonselective muscarinic receptor", "experiment": "Binding at the nonselective muscarinic receptor", "parameters": "species or system rat"}, "[2]": {"biological_target": "T1, human recombinant norepinephrine (NE) uptake site (Homo sapiens, UniProt P23975)", "T1 construct": "expressed in transfected cells", "T1 sequence (P23975 whole entry)": "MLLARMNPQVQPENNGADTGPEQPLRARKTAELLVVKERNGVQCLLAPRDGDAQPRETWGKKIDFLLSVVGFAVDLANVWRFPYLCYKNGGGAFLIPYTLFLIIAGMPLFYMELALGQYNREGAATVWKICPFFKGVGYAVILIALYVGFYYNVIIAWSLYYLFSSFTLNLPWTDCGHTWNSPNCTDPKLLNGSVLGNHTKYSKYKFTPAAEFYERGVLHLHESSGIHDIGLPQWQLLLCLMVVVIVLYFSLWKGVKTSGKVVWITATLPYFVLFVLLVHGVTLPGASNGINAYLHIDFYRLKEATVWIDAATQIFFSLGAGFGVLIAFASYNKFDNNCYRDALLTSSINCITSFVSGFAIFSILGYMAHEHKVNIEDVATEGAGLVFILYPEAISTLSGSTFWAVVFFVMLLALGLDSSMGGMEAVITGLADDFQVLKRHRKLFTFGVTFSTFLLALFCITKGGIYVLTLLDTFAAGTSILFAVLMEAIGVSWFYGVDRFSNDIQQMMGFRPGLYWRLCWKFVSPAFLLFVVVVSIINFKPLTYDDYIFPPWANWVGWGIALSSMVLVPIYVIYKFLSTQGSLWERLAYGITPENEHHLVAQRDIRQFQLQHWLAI", "experiment": "Binding at the norepinephrine (NE) uptake site"}, "[3]": {"biological_target": "serotonin (5-HT) uptake site (Rattus norvegicus, UniProt P31652)", "sequence (P31652 whole entry)": "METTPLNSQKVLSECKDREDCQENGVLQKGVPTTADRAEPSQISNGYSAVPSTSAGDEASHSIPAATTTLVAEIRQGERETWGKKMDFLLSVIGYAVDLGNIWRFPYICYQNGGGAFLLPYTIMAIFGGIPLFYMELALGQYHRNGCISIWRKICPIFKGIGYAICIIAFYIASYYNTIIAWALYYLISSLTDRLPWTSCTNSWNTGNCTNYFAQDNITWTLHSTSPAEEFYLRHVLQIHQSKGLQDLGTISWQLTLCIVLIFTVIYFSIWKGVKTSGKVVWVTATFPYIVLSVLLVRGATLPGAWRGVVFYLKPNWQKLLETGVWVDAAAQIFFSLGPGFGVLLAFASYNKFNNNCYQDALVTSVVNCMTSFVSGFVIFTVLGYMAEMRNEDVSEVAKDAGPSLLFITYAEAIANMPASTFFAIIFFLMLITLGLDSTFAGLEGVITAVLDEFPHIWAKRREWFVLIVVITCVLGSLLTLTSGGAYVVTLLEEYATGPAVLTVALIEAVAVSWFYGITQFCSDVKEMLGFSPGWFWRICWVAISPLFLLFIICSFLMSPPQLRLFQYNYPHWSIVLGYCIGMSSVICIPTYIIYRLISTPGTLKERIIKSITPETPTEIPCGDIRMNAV", "settings": "summary of the table data", "experimental": "IC50 values (concentration required to inhibit 50% specific binding) were then determined by nonlinear regression analysis of the curves and tabulated below."}},
  "note": "Like-named read-outs stand apart in the source and are kept apart here.",
  "data": [
    {"molecule": "CC(C)C[C@H](N)C1(c2ccc(Cl)cc2)CCC1", "note": "[(S)-DDMS, 1-[1-(4-chlorophenyl)cyclobutyl]-3-methyl-butylamine]", "values": [
      {"measurement": "Affinity for the muscarinic site, result in words", "setting": "[1]; summary of the table data", "result": "without appreciable 5-HT or muscarinic activity"},
      {"measurement": "IC50", "setting": "[2]", "result": 6.2, "unit": "nM"},
      {"measurement": "NE uptake site binding, result in words", "setting": "[2]; summary of the table data", "result": "potent inhibitor of NE uptake"},
      {"measurement": "5-HT uptake site binding, result in words", "setting": "[3]", "result": "without appreciable 5-HT or muscarinic activity"}
    ]},
    {"molecule": "CC(C)CC(N)C1(c2ccc(Cl)cc2)CCC1", "note": "(racemic) [(R/S)-DDMS]", "values": [
      {"measurement": "IC50", "setting": "[2]; human recombinant NE uptake site, single value or first value before slash, read-out: Binding IC50 Values (nM) NE Uptake", "result": 16, "unit": "nM"}
    ]},
    {"molecule": "CC(C)C[C@@H](N)C1(c2ccc(Cl)cc2)CCC1", "note": "[(R)-DDMS]", "values": [
      {"measurement": "IC50", "setting": "[2]", "result": 13, "unit": "nM"}
    ]},
    {"molecule": "CN1[C@@H]2CC[C@H]1C[C@@H](OC(=O)C(CO)c1ccccc1)C2", "note": "(stereo partly shown) [Atropine, reference compound]", "values": [
      {"measurement": "IC50", "setting": "[1]; rat cerebral cortex, inhibition of specific binding, competition curves, read-out: Binding IC50 Values (nM) Mucarinic Receptor", "result": 0.31, "unit": "nM"}
    ]}
  ]
}
